The text below walks through data of patent US20250154198A1, “PEPTIDE INHIBITORS OF INTERLEUKIN-23 RECEPTOR” (Zealand Pharma A/S, priority 2021, published 2025).

Like-named read-outs stand apart in the source and are kept apart here. *1 amine or outer side, *2 acyl side, *3 side chain or, on linkers, in order; H or OH if unused. Where a SMILES comes first, the peptide text is derived from it. Bridges are numbered along the chain shown (N, C = ends). [ ]: non-standard residue; d: D form. 1,3‑dibromopropan‑2‑one = linker (CAS 816-39-7) joining two Cys as 1,3-dithio-propan-2-one bridge -SCH2C(=O)CH2S-; 2Nal = N[C@@H](Cc1ccc2ccccc2c1)C(=O)O; AEF = NCCOc1ccc(C[C@H](N)C(=O)O)cc1; X20 = O=C(c1ccc(CCN[*:1])cc1)[*:2]; X24 = O=C(CCc1ccc(N[*:1])cc1)[*:2]; X1 = O=C(Cc1ccc(CN[*:1])cc1)[*:2]; αMeL = CC(C)C[C@](C)(N)C(=O)O; CH2COCH2 = O=C(C[*:1])C[*:2]; 4Amb = NCc1ccc(C(=O)O)cc1 Some results are limits rather than exact numbers.

The target of assay [1] is T1, human IL-23R (Homo sapiens, UniProt Q5VWK5).
T1 construct: UniProtKB—Q5VWK5, amino acids 22-629; secretion signal of the plasmid (Promega N1371); expressed in transfected cells
T1 sequence (Q5VWK5 22-629): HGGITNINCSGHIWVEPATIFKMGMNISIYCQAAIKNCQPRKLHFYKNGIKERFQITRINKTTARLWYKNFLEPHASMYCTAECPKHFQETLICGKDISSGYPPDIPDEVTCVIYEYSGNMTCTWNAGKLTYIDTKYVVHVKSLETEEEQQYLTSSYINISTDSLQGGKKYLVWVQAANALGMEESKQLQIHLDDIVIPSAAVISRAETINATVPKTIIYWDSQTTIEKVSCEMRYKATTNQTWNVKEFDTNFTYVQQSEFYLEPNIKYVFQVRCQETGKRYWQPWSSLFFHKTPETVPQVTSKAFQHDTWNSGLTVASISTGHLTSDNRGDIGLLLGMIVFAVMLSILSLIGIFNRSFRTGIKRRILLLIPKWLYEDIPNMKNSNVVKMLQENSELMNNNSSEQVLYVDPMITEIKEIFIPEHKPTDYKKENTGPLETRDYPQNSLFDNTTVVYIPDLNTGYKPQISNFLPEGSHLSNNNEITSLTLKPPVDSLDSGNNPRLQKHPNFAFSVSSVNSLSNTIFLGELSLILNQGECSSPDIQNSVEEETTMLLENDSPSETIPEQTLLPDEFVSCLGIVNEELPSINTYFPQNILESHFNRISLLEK
The experiment in a line: Binding assay (NanoBRET displacement of fluorophore-labelled reference compound) for estimating binding affinity to human IL-23R. The text has this: Binding Assay for Estimating Binding Affinity of Compounds to Human IL-23R
The compound binding affinity for IL-23R was estimated by the ability of compounds to displace a fluorophore-labelled reference compound from the human IL-23R. The assay principle relies on Bioluminescence Resonance Energy Transfer (BRET) between a fluorophore-labelled reference compound binding to the IL-23R part of a fusion protein consisting of the IL-23R fused to a Nanoluc luciferase enzyme (Nanoluc). The Nanoluc is placed in the N-terminus in close proximity to the binding domain of the ligand. Upon close proximity between the fluorophore of the fluorophore-labelled compound and the Nanoluc of the fusion protein, bioluminescence energy generated from conversion of a Nanoluc substrate, is transferred to the fluorophore resulting in an increase in BRET. In presence of an unlabelled compound, the unlabelled compound displaces the fluorophore-labelled peptide from its binding site resulting in a decrease in BRET. The concentration for which half of the fluorophore-labelled peptide is displaced by the unlabelled compound depends on the affinity of the compound for the IL-23R, and is termed the IC50 concentration. An estimated affinity (K) of the unlabelled compound for the IL-23R may be calculated using the Cheng-Prussov equation, which takes into account the concentration of the fluorophore-labelled compound used, and the affinity of the fluorophore-labelled compound for IL-23R.
The plasmid also contained a gene to confer resistance for the antibiotic hygromycin. A cell line stably expressing the Nluc-IL23R fusion protein was generated by transfection of HEK293 cells with the expression plasmid and selected with hygromycin for 3 weeks in Growth medium consisting of DMEM w/Glutamax-I containing, 10% V/V FBS, 1% V/V P/S, 1 mM Sodium Pyruvate, and 1×NEAA, and 0.3 mg/mL hygromycin. The remaining cells were propagated and considered a stable expressing Nluc-IL23R fusion protein pool clone.
Cells expressing the Nluc-IL23R fusion protein were expanded in Growth medium and membranes prepared by homogenization of a cell pellet from 18 T175 flasks (4° C. in subsequent steps). The cell pellet was lysed Tris 10 mM, 7.5, 1 mM EDTA and protease inhibitors (Complete, Roche) and homogenized using a 15 mL glass-dounce by 50 strokes. The homogenate was spun at spin @1500 rpm for 10 min, the supernatant transferred to SV-34 tubes and spun at 40000 g for 20 min at 4° C. to pellet the crude membranes. The supernatant was then removed, the pellet resuspended in 5 mL buffer containing 50 mM HEPES pH 7.4, 5 mM EGTA, and 5 mM MgCl2, and homogenized. Aliquots of the resuspended and homogenized membranes containing the Nluc-IL23R fusion protein were stored at −80° C. until use.
The plate was sealed with light impermeable plate seals, and incubated on a orbital shaker 400 rpm for 2 hours at room temperature. To determine the BRET ratio, the plate seal was removed and 25 μL of the Nanoluc substrate (Promega N1572) diluted 1:500 was added to each well and incubated for 1-2 minutes on an orbital shaker at 400 rpm. […] The BRET ratio was calculated as the fluorescence from the TAMRA/nanoluc bioluminescence. The IC50 for each compound was determined by computer-aided curve fitting using a 4-parameter logistic (4PL) non-linear model.

In assay [2] the target is T2, human IL-23R endogenously expressed on DB cells (CRL-2289) (human, UniProt Q5VWK5 24-629).
T2 sequence (looked up): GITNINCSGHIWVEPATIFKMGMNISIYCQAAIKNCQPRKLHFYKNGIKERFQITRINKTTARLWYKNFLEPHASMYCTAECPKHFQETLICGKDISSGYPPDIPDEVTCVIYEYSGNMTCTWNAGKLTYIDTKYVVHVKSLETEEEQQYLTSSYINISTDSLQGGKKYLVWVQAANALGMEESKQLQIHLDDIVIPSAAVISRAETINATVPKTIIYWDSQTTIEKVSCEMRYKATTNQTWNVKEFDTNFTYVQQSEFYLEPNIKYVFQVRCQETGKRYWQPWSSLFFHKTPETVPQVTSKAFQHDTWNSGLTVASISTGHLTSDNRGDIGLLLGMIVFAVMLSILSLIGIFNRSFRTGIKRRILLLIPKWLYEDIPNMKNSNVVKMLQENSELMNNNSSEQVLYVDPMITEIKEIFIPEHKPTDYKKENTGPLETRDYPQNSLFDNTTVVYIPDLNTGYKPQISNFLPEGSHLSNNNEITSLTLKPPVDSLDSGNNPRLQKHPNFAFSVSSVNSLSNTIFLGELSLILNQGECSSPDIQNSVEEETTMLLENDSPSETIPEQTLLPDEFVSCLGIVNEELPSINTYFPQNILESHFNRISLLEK
The experiment in a line: cell-based or functional assay.

The mark [3] stands for this setting: Table 3-1, read-out: Ki hIL-23R.
The mark [4] stands for this setting: Table 2-10b, read-out: Ki IL-23R.

By Ki is commonly meant a dissociation constant, usually derived from enzyme kinetics or from competition with a known ligand. Turning to `CC(C)C[C@]1(C)NC(=O)[C@H](Cc2ccc3ccccc3c2)NC(=O)[C@H](Cc2ccc(OCCN)cc2)NC(=O)[C@@H]2CCC(=O)NCCC[C@H](NC(=O)[C@H](CO)NC(=O)c3cccc(c3)CNC(=O)CC[C@@H](C(=O)N[C@@H](CCCNC(=N)N)C(N)=O)NC1=O)C(=O)N[C@@H](Cc1c[nH]c3ccccc13)C(=O)N[C@@H](CCC(N)=O)C(=O)N2` (relative stereo) [Compound 68, [(3-Aminomethyl)benzoyl](1c)*S[Orn](2c)WQE(2c)[Y(2-aminoethoxy)][2-Nal][2-Me-Leu]E(1c)R-[NH2]], in assay [1] (setting [3]), the Ki was 3.32 nM. Turning to `CC(C)C[C@]1(C)NC(=O)[C@H](Cc2c[nH]c3ccccc23)NC(=O)[C@H](Cc2c[nH]c3ccccc23)NC(=O)[C@@H]2CSCC(=O)CSC[C@H](NC(=O)[C@H]([C@@H](C)O)NC(=O)[C@@H](NC(=O)CN)CSCC(=O)CSC[C@@H](C(=O)N[C@@H](CO)C(N)=O)NC1=O)C(=O)N[C@@H](Cc1c[nH]c3ccccc13)C(=O)N[C@@H](CCC(=O)O)C(=O)N2` (single isomer, unassigned) [I5 (isomer 3), H-GC(1a)TC(2a)WEC(2a)WW[2-Me-Leu]C(1a)S-[NH2], reference compound], the “potency for IL-23R (in words)” value in assay [1] (in comparison with Protagonist's Compound C) is listed as “lower potency”. Consider `CC(C)C[C@]1(C)NC(=O)[C@H](Cc2ccc3ccccc3c2)NC(=O)[C@H](Cc2ccc(OCCN)cc2)NC(=O)[C@@H]2CSCC(=O)CSC[C@H](NC(=O)[C@H](CO)NC(=O)c3ccc(cc3)CNC(=O)CC[C@@H](C(=O)N[C@@H](CCCNC(=N)N)C(N)=O)NC1=O)C(=O)N[C@@H](Cc1c[nH]c3ccccc13)C(=O)N[C@@H](CCC(N)=O)C(=O)N2` [Compound 49, [(4-Aminomethyl)benzoyl](1c)*SC(2a)WQC(2a)[Y(2-aminoethoxy)][2-Nal][2-Me-Leu]E(1c)R-[NH2]] ([4Amb]SCWQC[AEF][2Nal][αMeL]ER-NH2; linker 3-6 via CH2COCH2; lactam N-10), for which, in assay [1] (setting [4]), the Ki is 1.16 nM. Take `CC(C)C[C@]1(C)NC(=O)[C@H](Cc2ccc3ccccc3c2)NC(=O)[C@H](Cc2ccc(OCCN)cc2)NC(=O)[C@@H]2CSCC(=O)CSC[C@H](NC(=O)[C@H](CO)NC(=O)c3ccc(cc3)CCNC(=O)CC[C@@H](C(=O)N[C@@H](CCCNC(=N)N)C(N)=O)NC1=O)C(=O)N[C@@H](Cc1c[nH]c3ccccc13)C(=O)N[C@@H](CCC(N)=O)C(=O)N2` [Compound 50, [4-(2-Aminoethyl)benzoyl](1c)*SC(2a)WQC(2a)[Y(2-aminoethoxy)][2-Nal][2-Me-Leu]E(1c)R-[NH2]] ([X20]SCWQC[AEF][2Nal][αMeL]ER-NH2; linker 3-6 via CH2COCH2; lactam N-10): the results for the Ki in assay [1] (setting [4]) and in assay [1] (setting [3]) were 5.09 nM and 5.1 nM, respectively. With `CC(C)C[C@]1(C)NC(=O)[C@H](Cc2ccc3ccccc3c2)NC(=O)[C@H](Cc2ccc(OCCN)cc2)NC(=O)[C@@H]2CSCC(=O)CSC[C@H](NC(=O)[C@H](CO)NC(=O)CCc3ccc(cc3)NC(=O)CC[C@@H](C(=O)N[C@@H](CCCNC(=N)N)C(N)=O)NC1=O)C(=O)N[C@@H](Cc1c[nH]c3ccccc13)C(=O)N[C@@H](CCC(N)=O)C(=O)N2` [Compound 51, [3-(4-Aminophenyl)propanoyl](1c)*SC(2a)WQC(2a)[Y(2-aminoethoxy)][2-Nal][2-Me-Leu]E(1c)R-[NH2]] ([X24]SCWQC[AEF][2Nal][αMeL]ER-NH2; linker 3-6 via CH2COCH2; lactam N-10), in assay [1] (setting [4]), the Ki is 2 nM. Turning to `CC(C)C[C@]1(C)NC(=O)[C@H](Cc2ccc3ccccc3c2)NC(=O)[C@H](Cc2ccc(OCCN)cc2)NC(=O)[C@@H]2CSCC(=O)CSC[C@H](NC(=O)[C@H](CO)NC(=O)Cc3ccc(cc3)CNC(=O)CC[C@@H](C(=O)N[C@@H](CCCNC(=N)N)C(N)=O)NC1=O)C(=O)N[C@@H](Cc1c[nH]c3ccccc13)C(=O)N[C@@H](CCC(N)=O)C(=O)N2` [Compound 52, [4-Aminomethyl-phenylacetyl](1c)*SC(2a)WQC(2a)[Y(2-aminoethoxy)][2-Nal][2-Me-Leu]E(1c)R-[NH2]] ([X1]SCWQC[AEF][2Nal][αMeL]ER-NH2; linker 3-6 via CH2COCH2; lactam N-10), the Ki in assay [1] (hIL-23R, Ki from IC50 by Cheng-Prusoff equation, read-out: Ki determined affinity) is 0.057 nM. `CC(C)C[C@@H]1NC(=O)[C@H](Cc2c[nH]c3ccccc23)NC(=O)[C@H](Cc2c[nH]c3ccccc23)NC(=O)[C@@H]2CSSC[C@H](NC(=O)[C@H](CO)NC(=O)[C@@H](NC(=O)[C@@H](N)CC(=O)O)CSCC(=O)CSC[C@@H](C(=O)N[C@@H](CCCNC(=N)N)C(N)=O)NC1=O)C(=O)N[C@@H](Cc1c[nH]c3ccccc13)C(=O)N[C@@H](CCC(N)=O)C(=O)N2` [Compound 53, H-DC(1a)SC(2b)WQC(2b)WWLC(1a)R-[NH2]]: in assay [1], the Ki was more than 1000 nM. As to Ac-DESCWCWWLKR-NH2 (lactam 2-10; linker 4-6 via 1,3‑dibromopropan‑2‑one) [Ref 6], the “IC50 (pSTAT3)” value in assay [2] was more than 1 µM. Turning to Ac-DECWQCWWLKR-NH2 (lactam 2-10; linker 3-6 via 1,3‑dibromopropan‑2‑one) [Ref 5], in assay [2], the “IC50 (pSTAT3)” value is more than 1 µM.

B1: Ref 4 (peptide)
peptide: DESMWQMWWLKR
HELM: PEPTIDE1{[ac].D.E.S.M.W.Q.M.W.W.L.K.R.[am]}$PEPTIDE1,PEPTIDE1,3:R3-12:R3$$$V2.0
SMILES: CSCC[C@@H]1NC(=O)[C@H](CO)NC(=O)[C@@H](NC(=O)[C@H](CC(=O)O)NC(C)=O)CCC(=O)NCCCC[C@@H](C(=O)N[C@@H](CCCNC(=N)N)C(N)=O)NC(=O)[C@H](CC(C)C)NC(=O)[C@H](Cc2c[nH]c3ccccc23)NC(=O)[C@H](Cc2c[nH]c3ccccc23)NC(=O)[C@H](CCSC)NC(=O)[C@H](CCC(N)=O)NC(=O)[C@H](Cc2c[nH]c3ccccc23)NC1=O
Regarding B1, in assay [2], the “IC50 (pSTAT3)” value was more than 1 µM. Consider Ac-DESCWQCWWKR-NH2 (lactam 2-10; linker 4-7 via 1,3‑dibromopropan‑2‑one) [Ref 7], for which, in assay [2], the “IC50 (pSTAT3)” value is more than 1 µM.
